The text below walks through data of PMC12144822 (Parasites & Vectors, 2025).

pIC50: −log10 of the molar value. Entries after “also recorded” stand apart in the source; their conditions may differ.

Data set [1] has as its system human and canine GABARs. In words: Voltage-clamp inhibition, summary over human and canine receptors. It is filed as cell-based. Particulars: for inhibitory effect on human and canine GABARs (in words): tested up to 30 μM. Here is the method:
(§1) Defoliculated X. laevis oocytes ordered from Ecocyte Bioscience (Dortmund, Germany) were microinjected with 15–25 nl of cRNA solution (5–50 ng/μl) per oocyte using an automated injector (Roboinject; Multi Channel Systems MCS GmbH, Reutlingen, Germany) and then incubated at 18 °C. All recordings were made 1–5 days post-cRNA injection and were performed at 18 ± 4 °C. Cells were superfused with OR2 medium (NaCl 88 mM, KCl 2.5 mM, HEPES 5 mM, CaCl2•2H2O 1.8 mM, MgCl2•7H2O 1.0 mM, pH 7.4). To ensure that γ2 subunits were integrated into the heteropentamers, we injected fivefold more γ2 than the other subunit cRNAs. Diazepam is a positive allosteric modulator of GABAR only if γ2 subunits are present. Therefore, we used this method to confirm the presence of human and dog GABAA receptor containing the γ2 subunit.
(§2) Voltage-clamp measurements were performed as described by Rufener et al.. Oocytes were impaled with two electrodes filled with 3 M KCl, and their membrane potentials were maintained at − 80 mV throughout the experiment. […] Recordings were performed using an automated process equipped with standard two-electrode voltage-clamp configuration (HiClamp system; Multi Channel Systems MCS GmbH). Data were filtered at 10 Hz, captured at 100 Hz and analyzed using proprietary data acquisition and analysis software in MATLAB (Mathworks Inc., Natick, MA, USA). Additional analyses were performed using Excel (Microsoft, Redmond, WA, USA). […] Graphing the maximum inward currents against the log of agonist concentration produces typical concentration-activation and concentration-inhibition curves, which can be accurately described using individual Hill equations. The concentration-activation curves were fitted using the following equation: Y=100/1+10^H(logEC50-X) where Y is the normalized response, logEC50 is the logarithm of the concentration of agonist eliciting half-maximal current amplitude, X is the log of the dose or concentration, and H is the slope factor or Hill slope. The same equation was used for the concentration-inhibition curves but logEC50 was replaced by logIC50 (half-maximal inhibitory concentration).
(§3) The agonist and the drug were then washed off for 15 s and the oocyte was exposed again to the same drug concentration for 25 s before increasing to the next concentration.

Data set [2] deals with Hsa-GABA α3β2γ2 (Homo sapiens, UniProt P18507+P34903+P47870). Briefly: Two-electrode voltage-clamp inhibition of GABA current, receptor expressed in Xenopus oocytes.
Description: (§4) Complementary DNA (cDNA) encoding for the human GABAA proteins α1 (NM_001127645.2), α2 (NM_001377146.1), α3 (KJ620007.1), α4 (NM_000809.4), α5 (NM_000810.4), α6 (NM_000811.3), β2 (XM_054352312.1), β3 (M82919.1), γ2 (NM_000816.3) and δ (NM_000815.5) were ordered from Genewiz (www.genewiz.com; Leipzig, Germany); for each gene, GenBank accession numbers are provided in parentheses. When necessary, silent mutations were introduced to break NheI or XhoI internal restriction sites. The corresponding open reading frames (ORF) were cloned into the pT7-TS transcription vector (introducing X. laevis β-globin untranslated cDNA to the 5’ and 3’ ends of the gene), following a procedure described in detail in a previous publication. The same process was used to obtain cDNA encoding canine GABAA proteins α4 (XM_025435560.1), α6 (XM_022417729.1) and δ (XM_005620414.2). Gene α2 (XM_025435664.1), α3 (XM_549343.5), α5 (XM_545805.6) and β3 (XM_025437408.1) were obtained by PCR; GenBank reference accession numbers are provided in parentheses. RNA extraction, cDNA synthesis and PCR amplification were performed as described previously. Total RNA was extracted from a piece of dog brain (Beagle breed; Canis lupus familiaris) from which 1 µg of total RNA (DNase-treated) was reverse-transcribed to cDNA using a (dT)30 primer and SuperScript III Reverse Transcriptase (Invitrogen, Thermo Fisher Scientific, Waltham, MA, USA). Gene-specific primers (Additional file 1: Table S1) were designed using Primer 3 software (http://frodo.wi.mit.edu/). […] The cycling conditions were: 98 °C for 30 s; then 38 cycles of 98 °C for 10 s, 58 °C for 30 s and 72 °C for 90 s; followed by 72 °C for 5 min. The dog subunits α1 (XM_546261.5), β2 (XM_014113040.1) and γ2 (XM_546259.5) had been previously amplified and described in a study by Rufener et al..
as §1
as §2, with “equations.” for “equations. The concentration-activation curves were fitted using the following equation: Y=100/1+10^H(logEC50-X) where Y is the normalized response, logEC50 is the logarithm of the concentration of agonist eliciting half-maximal current amplitude, X is the log of the dose or concentration, and H is the slope factor or Hill slope. The same equation was used for the concentration-inhibition curves but logEC50 was replaced by logIC50 (half-maximal inhibitory concentration).”

In data set [3] the target is Hsa-GABA α1β2γ2 (Homo sapiens, UniProt P14867+P18507+P47870). The description is as above.
Description: as §4, §1
as §2, with “equations.” for “equations. The concentration-activation curves were fitted using the following equation: Y=100/1+10^H(logEC50-X) where Y is the normalized response, logEC50 is the logarithm of the concentration of agonist eliciting half-maximal current amplitude, X is the log of the dose or concentration, and H is the slope factor or Hill slope. The same equation was used for the concentration-inhibition curves but logEC50 was replaced by logIC50 (half-maximal inhibitory concentration).”

The target in data set [4] is Hsa-GABA α2β3γ2 (Homo sapiens, UniProt P18507+P28472+P47869). The data set is described as above.
Description: as §4, §1
as §2, with “equations.” for “equations. The concentration-activation curves were fitted using the following equation: Y=100/1+10^H(logEC50-X) where Y is the normalized response, logEC50 is the logarithm of the concentration of agonist eliciting half-maximal current amplitude, X is the log of the dose or concentration, and H is the slope factor or Hill slope. The same equation was used for the concentration-inhibition curves but logEC50 was replaced by logIC50 (half-maximal inhibitory concentration).”

For data set [5], the target named is Hsa-GABA α6β2γ2 (Homo sapiens, UniProt P18507+P47870+Q16445). The data set is described as above.
Description: as §4, §1
as §2, with “equations.” for “equations. The concentration-activation curves were fitted using the following equation: Y=100/1+10^H(logEC50-X) where Y is the normalized response, logEC50 is the logarithm of the concentration of agonist eliciting half-maximal current amplitude, X is the log of the dose or concentration, and H is the slope factor or Hill slope. The same equation was used for the concentration-inhibition curves but logEC50 was replaced by logIC50 (half-maximal inhibitory concentration).”

Data set [6] concerns the target Hsa-GABA α5β2γ2 (Homo sapiens, UniProt P18507+P31644+P47870). The description is as above.
Description: as §4, §1
as §2, with “equations.” for “equations. The concentration-activation curves were fitted using the following equation: Y=100/1+10^H(logEC50-X) where Y is the normalized response, logEC50 is the logarithm of the concentration of agonist eliciting half-maximal current amplitude, X is the log of the dose or concentration, and H is the slope factor or Hill slope. The same equation was used for the concentration-inhibition curves but logEC50 was replaced by logIC50 (half-maximal inhibitory concentration).”

In data set [7] the target is Hsa-GABA α2β2γ2 (Homo sapiens, UniProt P18507+P47869+P47870). Described as above.
Description: as §4, §1
as §2, with “equations.” for “equations. The concentration-activation curves were fitted using the following equation: Y=100/1+10^H(logEC50-X) where Y is the normalized response, logEC50 is the logarithm of the concentration of agonist eliciting half-maximal current amplitude, X is the log of the dose or concentration, and H is the slope factor or Hill slope. The same equation was used for the concentration-inhibition curves but logEC50 was replaced by logIC50 (half-maximal inhibitory concentration).”

The subject of data set [8] is Hsa-GABARs. In words: Voltage-clamp inhibition, summary over the six human subunit combinations. Particulars: at 30 μM, average over Hsa-GABARs. Here is the method: as §1, §2, §3
Data set [9] has as its system Clu-GABARs. Briefly: Voltage-clamp inhibition, summary over the five canine subunit combinations. In kind it is cell-based, Canis lupus familiaris. The conditions noted are these: at 30 μM. On the procedure: as §1, §2, §3
In data set [10] the target is Clu-GABA α2β2γ2 (Canis lupus familiaris, UniProt A0A8I3RPG5+A0A8I3S1N5+E2RSQ0). Briefly: Two-electrode voltage-clamp inhibition of GABA current, receptor expressed in Xenopus oocytes. It is filed as cell-based.
Description: as §4, §1
as §2, with “equations.” for “equations. The concentration-activation curves were fitted using the following equation: Y=100/1+10^H(logEC50-X) where Y is the normalized response, logEC50 is the logarithm of the concentration of agonist eliciting half-maximal current amplitude, X is the log of the dose or concentration, and H is the slope factor or Hill slope. The same equation was used for the concentration-inhibition curves but logEC50 was replaced by logIC50 (half-maximal inhibitory concentration).”

Data set [11] deals with Clu-GABA α1β2γ2 (Canis lupus familiaris, UniProt A0A2H4NNI8+A0A8I3RPG5+E2RSQ0). The description is as above. In kind it is cell-based.
Description: as §4, §1
as §2, with “equations.” for “equations. The concentration-activation curves were fitted using the following equation: Y=100/1+10^H(logEC50-X) where Y is the normalized response, logEC50 is the logarithm of the concentration of agonist eliciting half-maximal current amplitude, X is the log of the dose or concentration, and H is the slope factor or Hill slope. The same equation was used for the concentration-inhibition curves but logEC50 was replaced by logIC50 (half-maximal inhibitory concentration).”

For data set [12], the target named is Clu-GABA α2β3γ2 (Canis lupus familiaris, UniProt A0A8I3NUI4+A0A8I3S1N5+E2RSQ0). The data set is described as above. In kind it is cell-based.
Description: as §4, §1
as §2, with “equations.” for “equations. The concentration-activation curves were fitted using the following equation: Y=100/1+10^H(logEC50-X) where Y is the normalized response, logEC50 is the logarithm of the concentration of agonist eliciting half-maximal current amplitude, X is the log of the dose or concentration, and H is the slope factor or Hill slope. The same equation was used for the concentration-inhibition curves but logEC50 was replaced by logIC50 (half-maximal inhibitory concentration).”

In data set [13] the target is Clu-GABA α5β2γ2 (Canis lupus familiaris, UniProt A0A8I3PC22+A0A8I3RPG5+E2RSQ0). Described as above. In kind it is cell-based.
Description: as §4, §1
as §2, with “equations.” for “equations. The concentration-activation curves were fitted using the following equation: Y=100/1+10^H(logEC50-X) where Y is the normalized response, logEC50 is the logarithm of the concentration of agonist eliciting half-maximal current amplitude, X is the log of the dose or concentration, and H is the slope factor or Hill slope. The same equation was used for the concentration-inhibition curves but logEC50 was replaced by logIC50 (half-maximal inhibitory concentration).”

Data set [14] addresses Clu-GABA α3β2γ2 (Canis lupus familiaris, UniProt A0A8I3PRS3+A0A8I3RPG5+E2RSQ0). The data set is described as above. It is filed as cell-based.
Description: as §4, §1
as §2, with “equations.” for “equations. The concentration-activation curves were fitted using the following equation: Y=100/1+10^H(logEC50-X) where Y is the normalized response, logEC50 is the logarithm of the concentration of agonist eliciting half-maximal current amplitude, X is the log of the dose or concentration, and H is the slope factor or Hill slope. The same equation was used for the concentration-inhibition curves but logEC50 was replaced by logIC50 (half-maximal inhibitory concentration).”

On the set-up of data set [15]: method as in PMID 33733534. Particulars: oral treatment at the minimum recommended dose; cited from earlier work.
Details of data set [16]: method as in PMID 40269978. Particulars: MDR1 mutant dog breeds; cited from earlier work.

Chain of Clu-GABA α3β2γ2 (A0A8I3PRS3 29-259): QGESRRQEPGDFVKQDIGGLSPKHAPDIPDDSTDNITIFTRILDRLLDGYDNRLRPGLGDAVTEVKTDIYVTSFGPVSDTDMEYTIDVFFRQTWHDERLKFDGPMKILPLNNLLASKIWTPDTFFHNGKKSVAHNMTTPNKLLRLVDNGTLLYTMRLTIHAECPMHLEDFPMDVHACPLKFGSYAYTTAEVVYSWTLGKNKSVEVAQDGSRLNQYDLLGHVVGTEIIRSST
Chain of Clu-GABA α3β2γ2 (A0A8I3RPG5 25-473): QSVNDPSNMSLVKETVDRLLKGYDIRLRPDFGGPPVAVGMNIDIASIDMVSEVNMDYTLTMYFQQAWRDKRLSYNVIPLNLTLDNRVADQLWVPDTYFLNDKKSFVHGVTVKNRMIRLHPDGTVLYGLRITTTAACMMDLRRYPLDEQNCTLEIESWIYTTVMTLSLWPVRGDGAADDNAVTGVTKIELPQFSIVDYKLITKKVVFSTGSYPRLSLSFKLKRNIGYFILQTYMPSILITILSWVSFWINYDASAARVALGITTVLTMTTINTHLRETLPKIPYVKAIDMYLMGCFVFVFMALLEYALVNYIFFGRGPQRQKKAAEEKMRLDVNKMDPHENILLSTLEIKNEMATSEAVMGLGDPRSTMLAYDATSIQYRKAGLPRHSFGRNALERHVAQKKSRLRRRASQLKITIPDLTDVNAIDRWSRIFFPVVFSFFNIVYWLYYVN
Chain of Clu-GABA α3β2γ2 (E2RSQ0 40-467): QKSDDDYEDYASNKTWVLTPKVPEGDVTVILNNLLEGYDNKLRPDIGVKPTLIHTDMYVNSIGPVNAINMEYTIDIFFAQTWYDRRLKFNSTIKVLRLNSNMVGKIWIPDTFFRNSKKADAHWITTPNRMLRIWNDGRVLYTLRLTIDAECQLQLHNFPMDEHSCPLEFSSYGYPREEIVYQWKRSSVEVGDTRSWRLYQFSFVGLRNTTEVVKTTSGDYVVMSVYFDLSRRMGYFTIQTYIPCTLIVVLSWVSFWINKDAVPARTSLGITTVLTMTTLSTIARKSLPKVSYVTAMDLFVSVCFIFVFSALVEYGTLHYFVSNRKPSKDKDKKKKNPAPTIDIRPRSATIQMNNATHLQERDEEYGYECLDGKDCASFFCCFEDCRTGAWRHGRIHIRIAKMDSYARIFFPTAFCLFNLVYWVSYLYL
Chain of Hsa-GABA α6β2γ2 (Q16445 20-453): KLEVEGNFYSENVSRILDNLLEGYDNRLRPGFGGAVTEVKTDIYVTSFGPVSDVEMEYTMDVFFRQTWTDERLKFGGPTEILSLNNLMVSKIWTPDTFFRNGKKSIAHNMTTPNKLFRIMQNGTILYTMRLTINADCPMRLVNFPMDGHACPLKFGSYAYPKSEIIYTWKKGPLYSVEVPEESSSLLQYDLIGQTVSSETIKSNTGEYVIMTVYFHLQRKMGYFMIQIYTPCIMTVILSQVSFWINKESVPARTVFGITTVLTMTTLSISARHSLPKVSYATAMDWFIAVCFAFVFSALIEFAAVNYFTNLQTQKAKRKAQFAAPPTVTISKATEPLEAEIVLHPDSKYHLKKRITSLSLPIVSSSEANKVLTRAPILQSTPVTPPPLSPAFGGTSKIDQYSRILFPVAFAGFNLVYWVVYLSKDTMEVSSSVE
Chain of Hsa-GABA α6β2γ2 (P47870 26-474 isoform P47870-1 limits assumed): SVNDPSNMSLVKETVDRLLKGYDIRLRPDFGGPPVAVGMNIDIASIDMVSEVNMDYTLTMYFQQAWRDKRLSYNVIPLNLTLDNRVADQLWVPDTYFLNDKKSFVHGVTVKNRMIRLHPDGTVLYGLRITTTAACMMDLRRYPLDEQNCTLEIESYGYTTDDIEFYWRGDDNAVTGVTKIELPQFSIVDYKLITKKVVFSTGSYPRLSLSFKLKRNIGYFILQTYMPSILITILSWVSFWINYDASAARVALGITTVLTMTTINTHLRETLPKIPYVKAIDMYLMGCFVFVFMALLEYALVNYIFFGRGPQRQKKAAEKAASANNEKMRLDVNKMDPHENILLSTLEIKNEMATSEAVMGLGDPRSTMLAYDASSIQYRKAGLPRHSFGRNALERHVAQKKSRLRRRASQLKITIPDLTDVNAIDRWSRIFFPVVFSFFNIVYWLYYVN
Chain of Hsa-GABA α6β2γ2 (P18507 40-467 isoform P18507-1 limits assumed): as the sequence (E2RSQ0 40-467) above
Chain of Clu-GABA α1β2γ2 (A0A2H4NNI8 28-456): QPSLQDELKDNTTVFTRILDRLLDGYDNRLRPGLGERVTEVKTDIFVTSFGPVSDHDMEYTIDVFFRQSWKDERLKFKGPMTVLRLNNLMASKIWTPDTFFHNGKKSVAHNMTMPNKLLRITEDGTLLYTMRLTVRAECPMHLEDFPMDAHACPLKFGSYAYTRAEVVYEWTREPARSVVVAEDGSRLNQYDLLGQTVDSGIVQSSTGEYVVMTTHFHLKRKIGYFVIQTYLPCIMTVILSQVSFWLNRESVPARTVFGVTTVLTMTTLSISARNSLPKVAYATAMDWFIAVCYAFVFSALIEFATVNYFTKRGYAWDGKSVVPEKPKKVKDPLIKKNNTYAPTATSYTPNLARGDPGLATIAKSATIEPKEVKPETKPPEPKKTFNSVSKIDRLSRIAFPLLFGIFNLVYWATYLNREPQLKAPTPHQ
Chain of Clu-GABA α1β2γ2 (A0A8I3RPG5 25-473): as the sequence (A0A8I3RPG5 25-473) above
Chain of Clu-GABA α1β2γ2 (E2RSQ0 40-467): as the sequence (E2RSQ0 40-467) above

The term pIC50 denotes the IC50 on a negative log10 scale, so that one unit is a factor of ten. For the molecule `Cc1cc(C2=NO[C@@](c3cc(Cl)c(Cl)c(Cl)c3)(C(F)(F)F)C2)sc1C(=O)NCC(=O)NCC(F)(F)F` [Lotilaner, lotilaner], the pIC50 in data set [1] (range or bound over all eleven subunit combinations), in data set [2], in data set [3], in data set [4], in [5] and in data set [6] was less than 4.52 throughout. In addition, the pIC50 in data set [7], in data set [10], in data set [11], in [12], in [13] and in [14] was less than 4.52 in each case. Moreover, the “inhibitory effect on human and canine GABARs (in words)” value in data set [1] was “inactive”; in [1] (listed as lotilaner), “little or no inhibitory effect; also recorded: did not show any significant inhibition”. In addition, the “average GABA current inhibition” value in [8] was 13%; in data set [9], 20%. For the same molecule, the “maximum in vivo concentration in dog plasma” value in data set [15] is given as 6.7 µM. In addition, the “neurological symptoms (in words)” value in data set [16] was “did not reveal neurological symptoms”.
